This is an account of results in US20230158015A1, “DRUG COMBINATIONS FOR INHIBITING INFLAMMATION AND SRC KINASE ACTIVATION FOLLOWING INVASIVE SURGICAL PROCEDURES” (SINTETICA S.A., priority 2020, published 2023).

Test [1] has as its system p-Src / total Src. Kind of test: Total Src and p-Src expression in MiaPaCa 2 human pancreatic cancer cell line (Western blot). The test is classed as cell-based. Conditions: 10 µM lidocaine, 100 nM methylnaltrexone or both, one hour. The protocol: (§1) • P-Src-Tyr416 (GeneTex # GTX81151) 1:2000 in 5% bovine serum albumin, at room temperature, 4 hours • Total Src (CST # 2108S) 1:3000 in 5% bovine serum albumin, at room temperature, 4 hours
Example 11 evaluated the effect of 10 µM lidocaine (L), 100 nM methylnaltrexone (M) and the combination of 10 µM lidocaine + 100 nM methylnaltrexone (L+M) for 1 hour on total Src and p-Src expression in a human pancreatic cancer cell line (MiaPaCa 2). Experimental conditions were identical to Example 10.
In general terms: Immunoblotting shows a protein as a band on a membrane.

Test [2] deals with p-Src / total Src. Description: Total Src and p-Src expression in Panc1 human pancreatic cancer cell line (Western blot). The settings on record: 10 µM lidocaine, 100 nM methylnaltrexone or both, time points up to 6 hours, fresh media. It is filed as cell-based. The protocol: as §1
Example 12 evaluated the effect of 10 µM lidocaine (L), 100 nM methylnaltrexone (M) and the combination of 10 µM lidocaine + 100 nM methylnaltrexone (L+M) on total Src and p-Src expression in a human pancreatic cancer cell line (Panc1) at multiple time points up to 6 hours, in fresh media. Experimental conditions were identical to Example 10.

Test [3] concerns LPS-challenged C57BL/6 mice. Description: LPS-induced inflammation model, H&E histopathology of lungs and spleen. The test is classed as in vivo, mouse. The method, then: (§2) C57BL/6J mice (6-8 weeks) were purchased from Charles River Laboratories (USA) and acclimatized for at least 1 week before use. All mice were housed in a pathogen-free facility. The mice received LPS for 24 hours. Following 24 hours, mice were treated either with lidocaine alone or methylnaltrexone alone or a combination of both, as shown in Table 1.
(§3) At the conclusion of the study, the blood and tissue samples were collected for further study. The serum was used to determine pro-inflammatory cytokines using the LEGENDplex™ mouse inflammation panel (BioLegend, USA) kit followed by flow cytometry. The lungs and spleen tissue samples were used for hematoxylin and eosin (H&E) staining and immunohistochemical analyses for immune cells, including macrophages and natural killer (NK) cells, B cells, T cells, and its subsets. For histopathology and immunohistochemistry (IHC), tissue samples were prepared by cutting 4-µm sections from the paraffin blocks. IHC staining was performed by methods described earlier. The images were captured using bright field microscopy (Nikon Microscope). Two independent investigators evaluated the H&E and all immunohistochemical staining. For slide scoring, each investigator assessed the tissues and gave a score of 0 (no expression) to 4+ (strong uniform expression) as described previously. The data were expressed either as the mean ± SD or mean ± SEM by using Graph Pad Prism software.

The test system of test [4] is LPS-induced serum inflammatory cytokines. Description: LPS-induced inflammation model, serum inflammatory cytokines (LEGENDplex, flow cytometry). It is filed as in vivo, mouse. Conditions: serum of treated mice. The method, then: as §2, §3
Gram-negative bacterial infections are the main cause of acute lung injury, and LPS, which is the main component of the Gram-negative bacteria cell wall, is the major stimulus for the release of inflammatory mediators. Therefore, we measured the effect of lidocaine alone, methylnaltrexone alone, or a combination of lidocaine and methylnaltrexone on LPS-induced serum inflammatory cytokines profiles. Mouse inflammatory cytokines were measured in serum of control and LPS-challenged mice treated with drugs as described in Table 1, using the LEGENDplex™ mouse inflammation panel (BioLegend, USA) kit followed by flow cytometry as per manufacturer’s specifications. […] However, serum tumor necrosis factor-alpha (TNF-α), monocyte chemoattractant protein 1 (MCP- 1), interleukin 10 (IL-10), interleukin 6 (IL-6), and interleukin 17A (IL-17A) levels were found decreased in mice challenged with LPS and treated with lidocaine and methylnaltrexone together (FIGS. 14C-G). IL-1, IL-6, IL-17A, MCP-1, and TNFα are pro- inflammatory cytokines associated with inflammatory signaling. Taken together, these findings indicate that combined treatment of lidocaine and methylnaltrexone has the potential to suppress inflammatory signaling.
A general note: Flow cytometry measures light scatter and fluorescence of single cells or particles in a stream.

Another test deals with p-Src protein. Description: p-Src inhibition by increasing lidocaine doses in human pancreatic cancer cells (Western blot). The test is classed as cell-based. Conditions: 30 minutes of treatment, 0-100 µM tested. The protocol: On day 1, pancreatic cancer cells were cultured until 300,000 cells per well in a 6 well plate were obtained. On day 2, the cells were treated with 0, 0.5, 1,5, 10, 15, 30, 50 and 100 µM lidocaine for 30 minutes. Plates were then collected and washed with phosphate buffered saline and stored at -80° C. Cells were subsequently lysed with 100 µl of radioimmunoprecipitation assay buffer with protease and phosphatase buffers.
Protein estimation was done using a Bradford assay under the following conditions: • A Western Blot was stripped with 6 M guanidine hydrochloride after phosphor-Src protein blocking to probe with total Src protein. • 10% SDS-PAGE 10 well Blocking: 5% bovine serum albumin for p-Src blot. • P-Src-Tyr416 (GeneTex GTX81151) Rb: 1:1000 in 5% bovine serum albumin, Overnight. • Total Src (Cell Signaling Technology 2108S ) Rb mAb 1:1000 overnight in 5% milk. • GAPDH (Invitrogen# AM4300) : 1:5000 in 5% milk overnight. • Wash: 4x for 5 minutes each with 1x TBST. • Developed using 50% femto for the p-Src protein and homemade ECL substrate for total Src and GAPDH protein.

The subject of test [5] is immune cells in lungs and spleen of LPS-challenged mice. Kind of test: LPS-induced inflammation model, IHC staining of immune cells in lungs and spleen. The test is classed as in vivo, mouse. Conditions: lungs and spleen sections. The method, then: as §2
as §3, with “The data were expressed either as the mean ± SD or mean ± SEM by using Graph Pad Prism software.” left out

Test [6] has as its system Src phosphorylation at tyrosine 419. Conditions: cited from earlier work.
Test [7] relates to p-Src / total Src. Description: Total Src and p-Src expression in AsPc 1 human pancreatic cancer cell line (Western blot). The test is classed as cell-based. The settings on record: 10 µM lidocaine, 100 nM methylnaltrexone or both, one hour. The method, then: Example 10 evaluated the effect of 10 µM lidocaine (L), 100 nM methylnaltrexone (M) and the combination of 10 µM lidocaine + 100 nM methylnaltrexone (L+M) for 1 hour on total Src and p-Src expression in a human pancreatic cancer cell line (AsPc 1).
as §1

Regarding `CCN(CC)CC(=O)Nc1c(C)cccc1C` [lidocaine, 2-diethylaminoaceto-2′,6′-xylidide], the p-Src entry in the test on p-Src / total Src [1] is reported as “attenuated p-Src”; in the test with p-Src / total Src [2], “inconsistent effects on decreases in p-Src”. The “H&E staining, histopathology of lungs” value in test [3] (LPS challenged mice, lungs) was “perivascular edema and accumulation of mixed cell infiltration within blood, and lymphatic vessels”. The “histological examination of spleen” value in test [3] (LPS challenged mice, spleen) is on record as “increased number of erythrocytes in the red pulp, along with mild edema”. Besides, the “LPS-induced inflammation (overall conclusion)” value in test [3] (mouse model, drug alone) is on record as “partially mitigate”. Further, the “serum interferon-gamma (IFNγ) level” value in test [4] is “insignificant changes”. The “serum interleukin 1 alpha (IL-1α) level” value in test [4] is given as “insignificant changes”. In the test on p-Src protein, the “dose from which the level of p-Src protein is reduced” value was no less than 10 µM. The “F4/80 positive area (macrophages)” value in test [5] is given as “partially decreased”. Moreover, the “decrease in TNF-α-induced Src phosphorylation” value in test [6] (co-incubation with TNF-α and 10 µM lidocaine, p=0.012) was 73%. The “decrease in Src phosphorylation at tyrosine 419” value in test [6] (lidocaine 1 nm-100 µM, 20 minutes, Kruskal-Wallis p=0.146) is listed as “did not reach statistical significance”. For the same compound, in the test on p-Src / total Src [7], the p-Src activity result is on record as “attenuated p-Src activity”.
